Experimental findings from patent US4855304A, “Dinucleoside pyrophosphates and pyrophosphate homologs as plant antivirals” (Repligen Corporation, priority 1985, dated 1989) are described below.

SMILES strings stand for the structures. Read-outs that look alike come from different tables or passages of the source.

In experiment [1] the test system is TMV (tobacco mosaic virus) replication in TMV-infected tobacco leaf discs. The experiment in a line: Antiviral activity in TMV-infected leaf discs (TMV content by ELISA). Set-up: key to TMV content: N.I.: no inhibition. The conditions noted are these: for inhibition at 0.1 µM / inhibition at 0.2 µM: Tobacco mosaic virus, read-out: percent inhibition as related to control. It counts as cell-based, tobacco mosaic virus; leaf discs of N. tabacum var. samsun. The protocol: Assays for antiviral activity in TMV-infected leaf discs were done using leaves of N. tabacum var. samsun in which TMV is systemically spread. Leaves were mechanically inoculated with purified TMV (5 μg/ml in 0.01M sodium phosphate buffer, pH 7.6, containing 0.1 g/ml of carborundum as an abrasive). Immediately after infection, leaf discs (6.5 mm diameter) were punched out of the inoculated leaves and placed in a beaker containing 0.01M sodium phosphate, pH 7.6.
selected at random from this common pool and placed onto separate petri dishes, each containing 18 ml of 10 mM 4-(2-hydroxyethyl)-1-piperazine ethanesulfonic acid (HEPES)-KOH, pH 7.05, 188 mg/L Na2 HPO4 --7H2 O. […] At the end of the 1 hr incubation, the buffer containing the antiviral dinucleotide was replaced by a buffer lacking the antiviral dinucleotide for another hr. The discs were then washed with 0.01M sodium phosphate, pH 7.6, and were allowed to incubate for an additional 72 hr in phosphate buffer (Devash, Y., Biggs, S. and Sela, I. [1982] Science 216: 1415-1416; Devash, Y. et al. [1984] J. Biol. Chem. 259: 3482-3486). The discs were homogenized in 0.01M sodiuM phosphate buffer, pH 7.6, and the TMV content was determined by enzyme-linked immunosorbent assay (ELISA) as described below.
(§1) The TMV content of the homogenates was determined by ELISA essentially by the method of Clark and Adams ([1977] J. Gen. Virol. 34: 475-483) but with the following order of layers on the microtiter plates.
(§2) (a) the γ-globulin fraction of a serum obtained from a chicken immunized against TMV was absorbed directly to the plate.
(§3) (b) The next layer was the tested sample (at various dilutions) or a series of purified TMV suspensions at known concentrations (calibration curve).
(§4) (c) The third layer was the γ-globulin from the serum of a TMV-immunized rabbit.
(§5) (d) The final layer was goat antibody to rabbit immunoglobulin G conjugated with alkaline phosphatase (Sigma). The release of phosphate from p-nitrophenyl phosphate due to the antibody-conjugated alkaline phosphatase was monitored spectrophotometrically with a Microplate reader (Dynatech Diagnostics, Inc. South Windham, ME) and was proportional to TMV concentration in a log linear manner for about two logs (<2 ng to>200 ng). (Devash, Y., Biggs, S. and Sela, I. [1982] Science 216: 1415-1416)
The γ-globulin fraction of serum obtained from chickens and rabbits immunized against TMV were generous gifts from Professor Ilan Sela, The Hebrew University of Jerusalem, Agriculture Faculty, Rehobot, Israel.

Experiment [2] deals with TMV (tobacco mosaic virus) replication in intact N. glutinosa plants. The experiment in a line: Antiviral activity in N. glutinosa intact plants, infectivity test (local lesions). Type of experiment: in vivo, tobacco mosaic virus; Nicotiana glutinosa. The following applies: for induced resistance to TMV infection in the non-treated half-leaf: 1 μM (10^-6 M), in words. On the procedure: (§6) Nicotiana glutinosa and N. tabacum var. samsum plants were grown in potting medium in greenhouse conditions (25±3° C., and constant illumination). The plants were fertilized with a commercial fertilizer every two weeks. Plants were used at 5-8 leaf stage (Devash, Y., Biggs, S. and Sela, I. [1982] Science 216: 1415-1416; Devash, Y. et al. [1984] Jour. Biol. Chem. 259: 3482-3486).
The ability of the antiviral dinucleotides to inhibit TMV replication in intact N. glutinosa plants (containing N-gene for TMV localization) was determined by infectivity tests. Solutions containing 5 μg/ml TMV, 0.1 μg/ml carborundum, and antiviral dinucleotide were applied to 5 half-leaves of N. glutinosa. The opposite half-leaves served as controls and were inoculated with infecting solution containing TMV and carborundum but no dinucleotides. The infection was allowed to proceed 48 hr. Inhibition of TMV replication was calculated as the percent of local lesions produced in antiviral compound treated half-leaves, as compared to control half-leaves.

Experiment [3] deals with TMV (tobacco mosaic virus) in N. tabacum plants. The experiment in a line: Root application to N. tabacum intact plants (TMV content by ELISA). Type of experiment: in vivo, tobacco mosaic virus; Nicotiana tabacum. The conditions noted are these: for % Protection / ng TMV/g of leaves: 1 μM, roots, 2 hr; for ng TMV/g of leaves: control 200. The protocol: as §6
Nicotiana tabacum plants were used as a source of plant tissue in which TMV is spread systemically.
(a) Root application: N. tabacum plants were removed from their pots and transferred into 50 ml tubes containing 10 ml of 10 mM HEPES-KOH, pH 7.6, and the antiviral dinucleotides. Two hr later, plants were transferred into 50 ml tubes lacking the antiviral compound and were inoculated by TMV as described above. Twenty-four hr later leaves were homogenized in 0.01M sodium phosphate buffer, pH 7.6, (1 g leaves/3 ml buffer) and TMV content was determined by ELISA.
as §1, §2, §3, §4, §5
In order to establish the relationship of the induced resistance to the N-gene for viral localization and to the transmission ability of the compounds, a comparison between leaf application and root application of antiviral dinucleotides to N. tabacum plants was made. N. tabacum plants were removed into vials containing 10 ml of 10 mM HEPES-KOH, pH 7.6, and 1 μM of antiviral dinucleotide. The plant roots were allowed to remain in the solutions for 2 hr and then were transferred to vials containing the buffer without the antiviral compounds.
The plants then were infected with TMV as above. (See section 4. Antiviral activity on N. tabacum intact plants, paragraph [a].) Another group of N. tabacum plants was tested as described in the above-noted section, paragraph (b).
On the technique in general: ELISA stands for enzyme-linked immunosorbent assay.

Where [4] appears, read: 100 nM, treatment with [Ca^+2] coprecipitation, control 75.
Where [5] appears, read: 100 nM, treatment without [Ca^+2] coprecipitation, control 56.
Setting [6] is: 200 nM, treatment with [Ca^+2] coprecipitation, control 75.
Where [7] appears, read: 200 nM, treatment without [Ca^+2] coprecipitation, control 56.
The mark [8] stands for this setting: 100 nM, treatment with [Ca^+2] coprecipitation.
Setting [9] is: 100 nM, treatment without [Ca^+2] coprecipitation.
Where [10] appears, read: 200 nM, treatment with [Ca^+2] coprecipitation.
Where [11] appears, read: 200 nM, treatment without [Ca^+2] coprecipitation.
Where [12] appears, read: 10 nM (10^-8 M), non-treated half-leaf.
The mark [13] stands for this setting: 10 nM (10^-8 M), treated half-leaf.
The mark [14] stands for this setting: 100 nM (10^-7 M), non-treated half-leaf.
[15] abbreviates: 100 nM (10^-7 M), treated half-leaf.
The mark [16] stands for this setting: 1000 nM (10^-6 M), non-treated half-leaf.
Setting [17] is: 1000 nM (10^-6 M), treated half-leaf.

`Nc1ncnc2c1ncn2[C@@H]1O[C@H](COP(=O)(O)OP(=O)(O)OC[C@H]2O[C@@H](n3cnc4c(N)ncnc43)[C@H](O)[C@@H]2O)[C@@H](O)[C@H]1O` [A5'pp5'A, diadenosine 5',5'"-p^1,p^2 -diphosphate]: the TMV content is recorded as 48 ngTMV/ml in experiment [1] (setting [4]), “N.I” in experiment [1] (setting [5]), 44 ngTMV/ml in experiment [1] (setting [6]) and “N.I” in experiment [1] (setting [7]). The results for the inhibition at 0.1 µM in experiment [1] (setting [8]) and in experiment [1] (setting [9]) were 36% and 0%, respectively. Moreover, the inhibition at 0.2 µM in experiment [1] (setting [10]) was determined as 41%; in experiment [1] (setting [11]), 0%. The “percent protection as compared to control TMV infected leaves” value in experiment [2] (setting [12]) came out at 68.4%; in experiment [2] (setting [13]), 96.0%; in experiment [2] (setting [14]), 54.6%; in experiment [2] (setting [15]), 95.4%; in experiment [2] (setting [16]) it was 100%; in experiment [2] (setting [17]) it was 100%. In experiment [2], the “induced resistance to TMV infection in the non-treated half-leaf” value is recorded as “resulted in an induced resistance to TMV infection even in the non-treated half-leaf”. Besides, in experiment [3] (1 μM (10^-6 M), exposure of plant roots), the “suppression (inhibition) of the virus” value was 98-100%. Besides, in experiment [3], the “% Protection” value was 100%. For the same compound, the “ng TMV/g of leaves” value in experiment [3] is reported as 0 ng TMV/g of leaves.
On to `Nc1ncnc2c1ncn2[C@@H]1O[C@H](COP(=O)(O)OP(=O)(O)OP(=O)(O)OC[C@H]2O[C@@H](n3cnc4c(N)ncnc43)[C@H](O)[C@@H]2O)[C@@H](O)[C@H]1O` [A5'ppp5'A, diadenosine 5',5"'-p^1,p3 -triphosphate], for which the TMV content is 65 ngTMV/ml in experiment [1] (setting [4]), “N.I” in experiment [1] (setting [5]), 38 ngTMV/ml in experiment [1] (setting [6]) and “N.I” in experiment [1] (setting [7]). Besides, the inhibition at 0.1 µM in experiment [1] (setting [8]) came to 13%; in experiment [1] (setting [9]), 0%. In addition, the inhibition at 0.2 µM in experiment [1] (setting [10]) was 50%; in experiment [1] (setting [11]), 0%. Besides, the “percent protection as compared to control TMV infected leaves” value was 80.3% in experiment [2] (setting [12]); 98.6% in experiment [2] (setting [13]); 100% in experiment [2] (setting [14]); 100% in experiment [2] (setting [15]); 100% in experiment [2] (setting [16]); 100% in experiment [2] (setting [17]). Further, the “induced resistance to TMV infection in the non-treated half-leaf” value in experiment [2] is recorded as “resulted in an induced resistance to TMV infection even in the non-treated half-leaf”. Further, the “% Protection” value in experiment [3] is 51%. Moreover, the “ng TMV/g of leaves” value in experiment [3] is given as 98 ng TMV/g of leaves.

The term inhibition denotes the change of the read-out against control, counted positive when it falls.
